These results are taken from US20250000932A1, “DIAGNOSIS AND TREATMENT OF VA[…]” (University Of Maryland, Baltimore, priority 2023, published 2025).

The series concerns patients with catecholamine-resistant vasodilatory shock. In words: ATHOS-3: safety (adverse events, serious adverse events). The series is classed as in vivo, human. To be noted: patients with elevated renin concentrations at baseline. Here is the method: The use of Angiotensin II for the Treatment of High-Output Shock 3 (ATHOS-3) study has been described by Khanna et al. and Chawla et al. In brief, adults with vasodilatory shock despite volume resuscitation with 2:25 mL/kg and high-dose vasopressors were randomly assigned 1:1 to receive synthetic human angiotensin II (La Jolla Pharmaceutical Company™) or saline placebo plus standard vasopressors. Randomization was stratified according to MAP at screening and Acute Physiology and Chronic Health Evaluation II (APACHE II) score.
The study drug infusion started at 20 ng/kg/min and was adjusted during the first 3 hours to increase the MAP to 2:75 mm Hg while keeping other vasopressors constant. Thereafter, the study drug and other vasopressors were adjusted at the discretion of the treating ICU team to maintain a MAP between 65 and 75 mm Hg. At 48 hours, the infusion was discontinued according to a protocol-specified tapering process. However, continuation was allowed for up to 7 days at the discretion of the ICU team.
Safety was evaluated by assessment of treatment-emergent adverse events, serious adverse events, and adverse event-related drug discontinuations.

With `CC[C@H](C)[C@H](NC(=O)[C@H](Cc1ccc(O)cc1)NC(=O)[C@@H](NC(=O)[C@H](CCCNC(=N)N)NC(=O)[C@@H](N)CC(=O)O)C(C)C)C(=O)N[C@@H](Cc1cnc[nH]1)C(=O)N1CCC[C@H]1C(=O)N[C@@H](Cc1ccccc1)C(=O)O` [Angiotensin II, angiotensin II], the “adverse events or serious adverse events vs placebo” value was “no significant difference”.
